Assay results from patent US8648111B2, “N1-2-thiophene-2-ylethyl-N2-substituted biguanide derivate, preparation method thereof, and pharmaceutical composition containing the same as active ingredients” (Hanall Biopharma Co., Ltd., priority 2008, dated 2014).
Like-named read-outs stand apart in the source and are kept apart here.

Experiments:
Assay type in all cases: cell-based
HepG2 cells [1] = assay: Measurement of triglyceride (triglyceride content in cell lysates, Amplex red)
Experimental: (§1) 2 mM metformin was used as a comparative compound for each of the plates (control group).
HepG2 cells (ATCC: American Type Culture Collection) were cultured in 1% serum-containing media (DMEM (Gibco), FBS (Gibco)) for 24 hours, and then treated with 100 μM or 500 μM of each of the compounds prepared in Examples for 24 hours. Then, the cells were disrupted with a lysis solution (0.1 M potassium phosphate, pH 7.4, 0.05 M NaCl, 5 mM cholic acid, 0.1% Triton X-100). […] After completion of the reaction, the content of triglyceride formed in the cell lysates was measured at a wavelength of 560/590 nm (ex/em) using a fluorescence microscope.
A lower measurement value means an increased triglyceride synthesis inhibitory ability.

HepG2 cells [2] = assay: Measurement of gluconeogenesis inhibitory ability (14C-lactate, glucose formed in cells)
Experimental: as §1
HepG2 cells (ATCC: American Type Culture Collection) were cultured in 10% serum-containing high glucose media, transferred to no serum-containing low glucose media (DMEM (Gibco), FBS (Gibco)), and then treated with 100 μM of each of the compounds for 24 hours. Then, the cells were treated with 0.5 μCi ^14C-lactate (Amersham Pharmacia) and 10 mM L-lactate (Sigma), and cultured for 4 hours. After cultivation, the media were removed therefrom, and the cells were washed with PBS, treated with 0.1N NaOH and kept at room temperature for 1 hour. Then, the cells were neutralized with 1N HCl, and the content of glucose formed in the cells was measured with a liquid scintillation counter.
A lower measurement value means an increased gluconeogenesis inhibitory ability.

HepG2 cells [3] = assay: Measurement of cholesterol synthesis inhibitory ability (cholesterol content in cell lysates, Amplex red)
Experimental: as §1
A cholesterol synthesis inhibitory ability, which is an important function of AMPK (AMP-activated protein kinase), was measured using HepG2 cells (ATCC: American Type Culture Collection) as a hepatic cell model according to the following procedure.
The hepatic cell model HepG2 cells were cultured in 1% serum-containing media (DMEM (Gibco), FBS (Gibco)) for 24 hours, and then treated with 100 μM or 500 μM of each of the compounds prepared in Examples for 24 hours. Then, the cells were disrupted with a lysis solution (0.1 M potassium phosphate, pH 7.4, 0.05 M NaCl, 5 mM cholic acid, 0.1% Triton X-100 (Sigma)). To the disrupted cells was added the same volume of a reaction solution (2 U/mL of a cholesterol oxidizing agent, 2 U/mL of a peroxidase, 0.2 U/mL of a cholesterol esterase, and 300 μM of Amplex red as a fluorescent factor (Molecular Probe)), which was allowed to react at 37° C. for 30 minutes. After completion of the reaction, the content of cholesterol formed in the cell lysates was measured at a wavelength of 560/590 nm (ex/em) using a fluorescence microscope.
A lower measurement value means an increased cholesterol synthesis inhibitory ability.

C2C12 cells = assay: Measurement of glucose absorption ability (3H-deoxy-glucose uptake with insulin); conditions: 100 uM compound with 1 μM insulin, 24 hours, differentiated C2C12; higher value = stronger; more than 200% counts as glucose absorption ability
Experimental: as §1
C2C12 cells (ATCC: American Type Culture Collection), a muscle cell model, were induced to differentiate into muscle cells in 2% bovine fetal serum-containing media (DMEM (Gibco), FBS (Gibco)) for 6 days. The C2C12 cells which differentiated into muscle cells were transferred to serum-free low glucose media (DMEM (Gibco), FBS (Gibco)), treated with 100 μM of each of the compounds, and then cultured with 1 μM of insulin for 24 hours. After cultivation, the cells were treated with 1 μCi ^3H-deoxy-glucose (Amersham Pharmacia) and 10 μM deoxy-glucose (Sigma) at 37° C. for 15 minutes. The media were removed therefrom, and the cells were washed twice with PBS (phosphate buffered saline). The washed cells were treated with 0.1N NaOH and neutralized with 1N HCl. The content of glucose absorbed into the cells was measured with a liquid scintillation counter.
A higher measurement value means a stronger ability to reduce insulin resistance.

[4] = 100 uM compound, 24 hours, HepG2, lower value = stronger triglyceride synthesis inhibition
[5] = 500 uM compound, 24 hours, HepG2, lower value = stronger triglyceride synthesis inhibition
[6] = 100 uM compound, 24 hours, HepG2, lower value = stronger gluconeogenesis inhibition
[7] = 100 uM compound, 24 hours, HepG2, lower value = stronger cholesterol synthesis inhibition
[8] = 500 uM compound, 24 hours, HepG2, lower value = stronger cholesterol synthesis inhibition

Row | Compound | Triglyceride (100 uM) Aver. (HepG2 cells [1]; [4]) | Triglyceride (500 uM) Aver. (HepG2 cells [1]; [5]) | Gluconeogenesis inhibition (100 uM) Aver. (HepG2 cells [2]; [6]) | Cholesterol (100 uM) Aver. (HepG2 cells [3]; [7]) | Cholesterol (500 uM) Aver. (HepG2 cells [3]; [8]) | Glucose absorption (100 uM) Aver. (C2C12 cells) [%] | Triglyceride (100 uM) Aver. (HepG2 cells [1]) | Triglyceride (500 uM) Aver. (HepG2 cells [1]) | Gluconeogenesis inhibition (100 uM) Aver. (HepG2 cells [2]) | Cholesterol (100 uM) Aver. (HepG2 cells [3]) | Cholesterol (500 uM) Aver. (HepG2 cells [3])
1 | Cl.N=C(N)NC(=Nc1ccc(-c2ccccc2)cc1)NCCc1cccs1 [Example 35, N1-2-(thiophen-2-ylethyl)-N2-(4-phenylphenyl) biguanide hydrochloride] | 18.94 | 14.92 | 109.62 | 28.27 | 30.49 | 35.00 | – | – | – | – | –
2 | Cl.N=C(N)NC(=Nc1ccc(Oc2ccccc2)cc1)NCCc1cccs1 [Example 36, N1-2-(thiophen-2-ylethyl)-N2-(4-phenoxyphenyl) biguanide hydrochloride] | 20.95 | 17.89 | 1.54 | 31.22 | 34.74 | 4.50 | – | – | – | – | –
3 | COc1ccc(CN=C(NCCc2cccs2)NC(=N)N)cc1.Cl [Example 38, N1-2-(thiophen-2-ylethyl)-N2-(4-methoxybenzyl) biguanide hydrochloride] | 100.89 | 84.10 | 120.13 | 80.35 | 44.72 | 195.22 | – | – | – | – | –
4 | Cl.N=C(N)NC(=Nc1cc(Cl)cc(Cl)c1)NCCc1cccs1 [Example 39, N1-2-(thiophen-2-ylethyl)-N2-(3,5-dichlorophenyl) biguanide hydrochloride] | 73.50 | 72.66 | 13.04 | 69.65 | 61.03 | 188.26 | – | – | – | – | –
5 | Cc1ccc(CN=C(NCCc2cccs2)NC(=N)N)cc1.Cl [Example 40, N1-2-(thiophen-2-ylethyl)-N2-(4-methylbenzyl) biguanide hydrochloride] | – | – | – | – | – | 75.38 | 84.73 | 60.37 | 81.23 | 72.58 | 57.11
6 | CC(C)N=C(NCCc1cccs1)NC(=N)N.Cl [Example 41, N1-2-(thiophen-2-ylethyl)-N2-isopropyl biguanide hydrochloride] | 93.91 | 81.62 | 97.81 | 87.73 | 75.54 | 150.65 | – | – | – | – | –
7 | CC(C)CN=C(NCCc1cccs1)NC(=N)N.Cl [Example 42, -2-(thiophen-2-ylethyl)-N2-isobutyl biguanide hydrochloride] | 97.66 | 88.50 | 99.91 | 89.11 | 73.15 | 171.92 | – | – | – | – | –
8 | Cl.N=C(N)NC(=NCC1CC1)NCCc1cccs1 [Example 43, N1-2-(thiophen-2-ylethyl)-N2-cyclopropylmethyl biguanide hydrochloride] | 90.52 | 79.92 | 99.28 | 88.47 | 78.80 | 196.03 | – | – | – | – | –
9 | C=CCN=C(NCCc1cccs1)NC(=N)N.Cl [Example 44, N1-2-(thiophen-2-ylethyl)-N2-allyl biguanide hydrochloride] | – | – | – | – | – | 87.78 | 96.99 | 74.60 | 77.80 | 85.73 | 82.40
10 | CN=C(NCCc1sccc1C)NC(=N)N.Cl [Example 45, N1-2-(3-methylthiophen-2-ylethyl)-N2-methyl biguanide hydrochloride] | 92.38 | 89.00 | 94.51 | 77.03 | 63.78 | 264.76 | – | – | – | – | –
11 | N1-2-(5-ethylthiophen-2-ylethyl)-N2-methyl biguanide hydrochloride [Example 46] | 90.82 | 86.07 | – | 84.52 | 71.64 | 353.21 | – | – | 23.65 | – | –
12 | N1-2-(thiophen-2-ylethyl)-N2-(4-bromobenzyl) biguanide hydrochloride [Example 37] | – | – | – | – | – | 7.71 | 61.41 | 20.15 | 89.96 | 28.36 | 30.84
13 | N1-2-(thiophen-2-ylethyl)-N2-cyclohexyl biguanide hydrochloride [Example 6] | – | – | – | – | – | 56.15 | 51.00 | −1.71 | 33.59 | 30.58 | 0.51
14 | N1-2-(thiophen-2-ylethyl)-N2-t-butyl biguanide hydrochloride [Example 7] | 74.43 | 16.49 | 39.98 | 42.51 | 2.79 | 21.59 | – | – | – | – | –
